The source made the active and inactive calls. No cut-off for these calls is given here.
Legend:
[1] = molecular target: T1, Nuclear factor erythroid 2-related factor 2 (Homo sapiens) (UniProt Q16236); experiment: Activation of Nrf2 in human BEAS2B cells assessed as increase in Nrf2 accumulation in nucleus at 1 uM incubated for 8 hrs by immunoblot analysis; assay type: cell-based
T1 sequence (whole entry): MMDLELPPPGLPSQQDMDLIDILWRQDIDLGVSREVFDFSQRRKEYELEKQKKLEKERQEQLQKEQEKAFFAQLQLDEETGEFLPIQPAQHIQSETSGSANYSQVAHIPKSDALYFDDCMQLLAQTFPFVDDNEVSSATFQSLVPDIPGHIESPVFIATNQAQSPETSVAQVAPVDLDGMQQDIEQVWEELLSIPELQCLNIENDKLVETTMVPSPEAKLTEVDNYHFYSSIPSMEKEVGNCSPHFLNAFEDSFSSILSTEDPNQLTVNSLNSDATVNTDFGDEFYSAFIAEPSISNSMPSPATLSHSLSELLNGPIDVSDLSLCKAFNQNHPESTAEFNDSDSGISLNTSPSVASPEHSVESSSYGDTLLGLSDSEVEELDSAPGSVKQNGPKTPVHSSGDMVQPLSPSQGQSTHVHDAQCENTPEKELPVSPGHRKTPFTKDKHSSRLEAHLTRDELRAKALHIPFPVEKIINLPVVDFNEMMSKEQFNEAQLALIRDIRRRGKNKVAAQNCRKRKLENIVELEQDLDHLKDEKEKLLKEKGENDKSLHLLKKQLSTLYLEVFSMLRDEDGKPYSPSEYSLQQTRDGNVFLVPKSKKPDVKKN

RAW264.7 [2] = experiment: Cytotoxicity against mouse RAW264.7 cells assessed as reduction in cell viability < 6.25 uM after 24 hrs by MTT assay; assay type: cell-based; details: raw264.7, 24 h
[3] = molecular target: Transcription factor p65 (Mus musculus) (UniProt Q04207); experiment: Inhibition of LPS-induced NFkappaB p65 nucleus translocation in mouse RAW264.7 cells at 2 uM pre-incubated for 1 hr followed by LPS-stimulation and measured after 1 hr by immunoblot analysis; assay type: cell-based
Sequence of Transcription factor p65 (Mus musculus) (Q04207 whole entry): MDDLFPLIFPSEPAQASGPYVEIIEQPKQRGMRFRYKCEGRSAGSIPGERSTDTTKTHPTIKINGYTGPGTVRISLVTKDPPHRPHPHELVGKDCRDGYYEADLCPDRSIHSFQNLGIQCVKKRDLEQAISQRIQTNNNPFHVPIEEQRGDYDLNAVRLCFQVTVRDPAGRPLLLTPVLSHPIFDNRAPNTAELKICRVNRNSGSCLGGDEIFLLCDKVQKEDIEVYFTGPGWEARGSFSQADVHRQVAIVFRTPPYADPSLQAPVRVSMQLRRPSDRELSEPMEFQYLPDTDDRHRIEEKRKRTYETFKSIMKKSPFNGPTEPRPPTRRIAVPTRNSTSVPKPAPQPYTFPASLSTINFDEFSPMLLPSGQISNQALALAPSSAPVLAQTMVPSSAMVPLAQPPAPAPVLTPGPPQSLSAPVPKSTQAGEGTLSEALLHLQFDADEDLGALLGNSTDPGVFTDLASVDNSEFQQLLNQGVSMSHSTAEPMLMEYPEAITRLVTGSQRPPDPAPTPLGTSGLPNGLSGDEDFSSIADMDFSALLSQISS

RAW264.7 [4] = experiment: Inhibition of LPS-induced iNOS mRNA expression in mouse RAW264.7 cells at 0.5 to 4 uM preincubated for 1 hr followed by LPS-stimulation and measured after 6 hrs by qRT-PCR analysis; assay type: functional, cell-based
RAW264.7 [5] = experiment: Inhibition of LPS-induced NFkappaB activation in mouse RAW264.7 cells assessed as increase in IKBalpha protein expression at 0.5 to 4 uM pre-incubated for 1 hr followed by LPS-stimulation and measured after 2 hrs by immunoblot analysis; assay type: cell-based
RAW264.7 [6] = experiment: Inhibition of LPS-induced MMP-9 mRNA expression in mouse RAW264.7 cells at 0.5 to 4 uM preincubated for 1 hr followed by LPS-stimulation and measured after 6 hrs by qRT-PCR analysis; assay type: functional, cell-based
RAW264.7 [7] = experiment: Inhibition of LPS-induced IL-1beta mRNA expression in mouse RAW264.7 cells at 0.5 to 4 uM preincubated for 1 hr followed by LPS-stimulation and measured after 6 hrs by qRT-PCR analysis; assay type: functional, cell-based
[8] = molecular target: T1, Nuclear factor erythroid 2-related factor 2 (Homo sapiens); experiment: Activation of Nrf2 in human BEAS2B cells at 0.25 to 2 uM incubated for 12 hrs by immunoblot analysis relative to SF; assay type: cell-based
[9] = molecular target: T1, Nuclear factor erythroid 2-related factor 2 (Homo sapiens); experiment: Stabilization of Nrf2 in human BEAS2B cells assessed as protein half life at 1 uM after 8 hrs in presence of CHX by immunoblot analysis (reference value: 12.9 min); assay type: cell-based
Mus musculus [10] = experiment: Antiinflammatory activity in C57BL/6 mouse model of CS-induced pulmonary injury assessed as reduction in hyperplasia of pneumo-cytes in lungs at 2 to 4 mg/kg, ip for 5 days by hematoxylin and eosin staining based fluorescence microscopic analysis; assay type: functional, organism-based
Mus musculus [11] = experiment: Antioxidant Activity in C57BL/6 mouse model of CS-induced pulmonary injury assessed as decrease in MDA level in lungs at 2 to 4 mg/kg, ip for 5 days; assay type: functional, organism-based
[12] = molecular target: T1, Nuclear factor erythroid 2-related factor 2 (Homo sapiens); experiment: Activation of Nrf2 in human BEAS2B cells harboring Keap1-C151S mutant assessed as increase in Nrf2 protein expression at 2.5 uM after12 hrs in presence of Keap1-siRNA by immunoblot analysis; assay type: cell-based
[13] = molecular target: T1, Nuclear factor erythroid 2-related factor 2 (Homo sapiens); experiment: Activation of Nrf2 in human BEAS2B cells assessed as increase in Nrf2 protein expression at 1 uM incubated for 8 hrs by immunoblot analysis; assay type: cell-based
Mus musculus [14] = experiment: Antiinflammatory activity in C57BL/6 mouse model of CS-induced pulmonary injury assessed as reduction in 8-oxo-dG in lungs at 2 to 4 mg/kg, ip for 5 days by ELISA; assay type: functional, organism-based
RAW264.7 [15] = experiment: Inhibition of LPS-induced IL-1beta protein expression in mouse RAW264.7 cells at 0.5 to 4 uM preincubated for 1 hr followed by LPS-stimulation and measured after 16 hrs by immunoblot analysis; assay type: functional, cell-based
[16] = molecular target: T1, Nuclear factor erythroid 2-related factor 2 (Homo sapiens); experiment: Activation of Nrf2 in human BEAS2B cells assessed as increase in KEAP1 protein expression at 0.25 to 2 uM incubated for 12 hrs by immunoblot analysis; assay type: cell-based
Mus musculus [17] = experiment: Antioxidant Activity in C57BL/6 mouse model of CS-induced pulmonary injury assessed as decrease in MDA level in serum at 2 to 4 mg/kg, ip for 5 days; assay type: functional, organism-based
[18] = molecular target: Keap1/Nrf2 (Homo sapiens) (UniProt Q16236+Q14145); experiment: Inhibition of Nrf2-KEAP1 (unknown origin) transfected in BEAS2B cells assessed as decrease in ratio of Nrf2 to Keap1 at 5 uM incubated for 24 hrs by immunoblot analysis; assay type: cell-based
Sequence of Keap1/Nrf2 (Homo sapiens) (Q14145 whole entry, looked up, one chain of several): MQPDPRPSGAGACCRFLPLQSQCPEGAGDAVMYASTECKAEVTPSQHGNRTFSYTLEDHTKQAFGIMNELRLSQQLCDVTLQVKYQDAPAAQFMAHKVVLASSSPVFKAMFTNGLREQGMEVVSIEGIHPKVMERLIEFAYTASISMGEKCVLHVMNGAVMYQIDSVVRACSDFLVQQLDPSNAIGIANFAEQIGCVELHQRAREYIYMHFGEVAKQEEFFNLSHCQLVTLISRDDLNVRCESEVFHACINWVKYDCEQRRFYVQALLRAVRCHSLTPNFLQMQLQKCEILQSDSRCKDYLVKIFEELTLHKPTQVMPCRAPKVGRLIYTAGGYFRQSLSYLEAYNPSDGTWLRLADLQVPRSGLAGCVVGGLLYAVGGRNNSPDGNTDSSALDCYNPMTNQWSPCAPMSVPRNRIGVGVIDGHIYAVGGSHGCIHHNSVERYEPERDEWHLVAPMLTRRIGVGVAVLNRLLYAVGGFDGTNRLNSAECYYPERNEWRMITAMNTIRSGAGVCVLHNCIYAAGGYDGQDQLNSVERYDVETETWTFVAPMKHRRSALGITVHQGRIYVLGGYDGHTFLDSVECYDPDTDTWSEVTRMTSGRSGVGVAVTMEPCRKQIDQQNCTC

BEAS-2B [19] = experiment: Antioxidant activity in human BEAS2B cells assessed as increase in GSH level incubated for 24 hrs; assay type: functional, cell-based
BEAS-2B [20] = experiment: Antioxidant activity in human BEAS2B cells assessed as increase in GSH level at 2 uM incubated for 1 to 12 hrs; assay type: functional, cell-based
RAW264.7 [21] = experiment: Inhibition of LPS-induced iNOS protein expression in mouse RAW264.7 cells at 0.5 to 4 uM preincubated for 1 hr followed by LPS-stimulation and measured after 16 hrs by immunoblot analysis; assay type: functional, cell-based
Mus musculus [22] = experiment: Antioxidant Activity in C57BL/6 mouse model of CS-induced pulmonary injury assessed as increase in SOD level in lungs at 2 to 4 mg/kg, ip for 5 days; assay type: functional, organism-based
[23] = molecular target: T1, Nuclear factor erythroid 2-related factor 2 (Homo sapiens); experiment: Activation of Nrf2 in human BEAS2B cells assessed as increase in Keap1 protein expression at 5 uM incubated for 24 hrs by immunoblot analysis; assay type: cell-based
RAW264.7 [24] = experiment: Inhibition of LPS-induced TNFalpha mRNA expression in mouse RAW264.7 cells at 0.5 to 4 uM preincubated for 1 hr followed by LPS-stimulation and measured after 6 hrs by qRT-PCR analysis; assay type: functional, cell-based
[25] = molecular target: T1, Nuclear factor erythroid 2-related factor 2 (Homo sapiens); experiment: Activation of Nrf2 in human MDA-MB-231 cells assessed as increase in ARE luciferase activity at > 4 uM incubated for 16 hrs by luciferase reporter gene assay; assay type: cell-based
MDA-MB-231 = experiment: Cytotoxicity against human MDA-MB-231 cells assessed as decrease in cell viability at 0.13 to 10 uM after 24 to 48 hrs by MTT assay; assay type: cell-based; details: mda-mb-231, 10 µM

Structure (SMILES): CC1=C(C)C(=O)O[C@H]([C@](C)(O)[C@]2(O)CC[C@@]3(O)[C@@H]4C[C@H]5O[C@]56[C@@H](O)C=CC(=O)[C@]6(C)[C@H]4CC[C@]23C)C1
- Activity [1]: Active
- Activity (RAW264.7 [2]): Non-Toxic
- inhibition [3]: Active
- inhibition (RAW264.7 [4]): Active
- inhibition (RAW264.7 [5]): Active
- inhibition (RAW264.7 [6]): Active
- inhibition (RAW264.7 [7]): Active
- fold change (FC) [8]: 2
- T1/2 [9]: 34.3 min
- Activity (Mus musculus [10]): Active
- Activity (Mus musculus [11]): Active
- Activity [12]: inactive
- Activity [13]: Active
- Activity (Mus musculus [14]): Active
- inhibition (RAW264.7 [15]): Active
- Activity [16]: inactive
- Activity (Mus musculus [17]): Active
- inhibition [18]: Active
- Activity (BEAS-2B [19]): Active
- Activity (BEAS-2B [20]): Active
- inhibition (RAW264.7 [21]): Active
- Activity (Mus musculus [22]): Active
- Activity [23]: inactive
- inhibition (RAW264.7 [24]): Active
- Activity [25]: inactive
- Activity (MDA-MB-231): Toxic

Source: ChEMBL document CHEMBL4616634, “4β-Hydroxywithanolide E from Goldenberry (Whole Fruits of Physalis peruviana L.) as a Promising Agent against Chronic Obstructive Pulmonary Disease” (J Nat Prod, 2020)
